Assay results as given in US20240218022A1, “ANTI-VISTA MACROCYCLIC PEPTIDES AND COMPOSITIONS” (BRISTOL-MYERS SQUIBB COMPANY, priority 2022, published 2024).
Where two headings read alike, the source gives them in different places. Positions of bridges follow the written chain, without caps; N, C: chain ends. Non-standard residues stand in square brackets, D forms with d. Residues, ends and D or L forms follow the SMILES beside them. ξ: configuration not given here. Cit = NC(=O)NCCC[C@H](N)C(=O)O; Ile(3ξ) = CCC(C)[C@H](N)C(=O)O; Ahp(2) = CCCCC[C@H](N)C(=O)O; NMeNle = CCCC[C@H](NC)C(=O)O; NHexGly = CCCCCCNCC(=O)O; Nle = CCCC[C@H](N)C(=O)O; Nva = CCC[C@H](N)C(=O)O; Abu = CC[C@H](N)C(=O)O

Target: T1, mouse VISTA (mVISTA) (Mus musculus, UniProt Q9D659)
T1 construct: expressed in transfected cells; host or cells: Human embryonic kidney 293T cells
T1 sequence (Q9D659 33-308): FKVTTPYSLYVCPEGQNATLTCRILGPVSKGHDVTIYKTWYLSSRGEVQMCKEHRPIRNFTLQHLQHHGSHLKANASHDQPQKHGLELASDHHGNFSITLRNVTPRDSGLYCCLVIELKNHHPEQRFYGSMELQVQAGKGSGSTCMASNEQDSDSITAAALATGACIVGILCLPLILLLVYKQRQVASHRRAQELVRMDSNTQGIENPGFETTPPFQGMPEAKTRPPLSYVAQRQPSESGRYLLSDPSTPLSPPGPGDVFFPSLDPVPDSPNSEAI
Experiment: Cell-Based Binding High-Content Assay For mVISTA (HC CBA mVISTA)
Conditions: 293T cells expressing mouse VISTA, competition with biotinylated peptide (2 nM)
In short: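 Competition of compound with a biotinylated peptide (final 2 nM, 30 min at RT) for binding to mVISTA on 293T cells, run under no-wash or wash (1 h compound preincubation then removal) formats. Readout by Alexa 647–streptavidin imaging on a high-content platform; four-parameter logistic fit gave IC50.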

| Structure (SMILES) | IC50 (read-out: HC CBA mVISTA IC50) | IC50 (read-out: CBA mVISTA IC50) |
| --- | --- | --- |
| CCCCCCN1CC(=O)N[C@@H](Cc2ccc(O)cc2)C(=O)N[C@@H](C(C)CC)C(=O)NCC(=O)N[C@@H](CCCNC(=N)N)C(=O)N[C@@H](CC(C)C)C(=O)N[C@@H](CCCCC)C(=O)N2CCC[C@H]2C(=O)N[C@@H](C(C)C)C(=O)N[C@@H](CO)C(=O)N[C@H](C(=O)NCC(=O)O)CSCC(=O)N[C@@H](Cc2ccccc2)C(=O)N[C@@H](Cc2ccc(O)cc2)C(=O)N[C@@H](CC(=O)O)C1=O (stereo partly shown) [Example 1059] ({CH2CO}-FYD[NHexGly]Y[Ile(3ξ)]GRL[Ahp(2)]PVSCG-OH; thioether N-14) | 30 nM |  |
| CCCCCCN1CC(=O)N[C@@H](Cc2ccc(O)cc2)C(=O)N[C@@H](CCC)C(=O)NCC(=O)N[C@@H](CCCNC(=N)N)C(=O)N[C@@H](CC(C)C)C(=O)N[C@@H](CCCCC)C(=O)N2CCC[C@H]2C(=O)N[C@@H](C(C)C)C(=O)N[C@@H](CO)C(=O)N[C@H](C(=O)NCC(=O)O)CSCC(=O)N[C@@H](Cc2ccccc2)C(=O)N[C@@H](Cc2ccc(O)cc2)C(=O)N[C@@H](CC(=O)O)C1=O [Example 1061] ({CH2CO}-FYD[NHexGly]Y[Nva]GRL[Ahp(2)]PVSCG-OH; thioether N-14) | 46.3 nM |  |
| CCCCCCN1CC(=O)N[C@@H](Cc2ccc(O)cc2)C(=O)N[C@@H](C(C)C)C(=O)NCC(=O)N[C@@H](CCCNC(=N)N)C(=O)N[C@@H](CC(C)C)C(=O)N[C@@H](CCCCC)C(=O)N2CCC[C@H]2C(=O)N[C@@H](C(C)C)C(=O)N[C@@H](CO)C(=O)N[C@H](C(=O)NCC(=O)O)CSCC(=O)N[C@@H](Cc2ccccc2)C(=O)N[C@@H](Cc2ccc(O)cc2)C(=O)N[C@@H](CC(=O)O)C1=O [Example 1063] ({CH2CO}-FYD[NHexGly]YVGRL[Ahp(2)]PVSCG-OH; thioether N-14) | 28.6 nM |  |
| CCCCCCN1CC(=O)N[C@@H](Cc2ccc(O)cc2)C(=O)N[C@@H](CCCCC)C(=O)NCC(=O)N[C@@H](CCCNC(N)=O)C(=O)N[C@@H](CC(C)C)C(=O)N[C@@H](CCCCC)C(=O)N2CCC[C@H]2C(=O)N[C@@H](C(C)C)C(=O)N[C@@H](CO)C(=O)N[C@H](C(=O)NCC(N)=O)CSCC(=O)N[C@@H](Cc2ccccc2)C(=O)N[C@@H](Cc2ccc(O)cc2)C(=O)N[C@@H](CC(=O)O)C1=O [Example 1064] ({CH2CO}-FYD[NHexGly]Y[Ahp(2)]G[Cit]L[Ahp(2)]PVSCG-NH2; thioether N-14) | 9.3 nM |  |
| CCCCCCN1CC(=O)N[C@@H](Cc2ccc(O)cc2)C(=O)N[C@@H](CCCC)C(=O)N[C@@H](CC(=O)O)C(=O)N[C@@H](CCCNC(=N)N)C(=O)N[C@@H](CC(C)C)C(=O)N[C@@H](CCCCC)C(=O)N2CCC[C@H]2C(=O)N[C@@H](C(C)C)C(=O)N[C@@H](C(C)C)C(=O)N[C@H](C(=O)NCC(=O)O)CSCC(=O)N[C@@H](Cc2ccccc2)C(=O)N[C@@H](Cc2ccc(O)cc2)C(=O)N[C@@H](CC(=O)O)C1=O [Example 1065] ({CH2CO}-FYD[NHexGly]Y[Nle]DRL[Ahp(2)]PVVCG-OH; thioether N-14) | 15.6 nM |  |
| CCCCCCN1CC(=O)N[C@@H](Cc2ccc(O)cc2)C(=O)N[C@@H](CC(C)C)C(=O)N[C@@H](CC(N)=O)C(=O)N[C@@H](CCCNC(=N)N)C(=O)N[C@@H](CC(C)C)C(=O)N[C@@H](CCCCC)C(=O)N2CCC[C@H]2C(=O)N[C@@H](C(C)C)C(=O)N[C@@H](C(C)C)C(=O)N[C@H](C(=O)NCC(=O)O)CSCC(=O)N[C@@H](Cc2ccccc2)C(=O)N[C@@H](Cc2ccc(O)cc2)C(=O)N[C@@H](CC(=O)O)C1=O [Example 1066] ({CH2CO}-FYD[NHexGly]YLNRL[Ahp(2)]PVVCG-OH; thioether N-14) | 2.4 nM |  |
| CCCCCCN1CC(=O)N[C@@H](Cc2ccc(O)cc2)C(=O)N[C@@H](CC(C)C)C(=O)N[C@@H](CC(N)=O)C(=O)N[C@@H](CCCNC(=N)N)C(=O)N[C@@H](CC(C)C)C(=O)N[C@@H](CCCCC)C(=O)N2CCC[C@H]2C(=O)N[C@@H](C(C)C)C(=O)N[C@@H](Cc2c[nH]c3ccccc23)C(=O)N[C@H](C(=O)NCC(=O)O)CSCC(=O)N[C@@H](Cc2ccccc2)C(=O)N[C@@H](Cc2ccc(O)cc2)C(=O)N[C@@H](CC(=O)O)C1=O [Example 1068] ({CH2CO}-FYD[NHexGly]YLNRL[Ahp(2)]PVWCG-OH; thioether N-14) | 39.4 nM |  |
| CCCCCCN1CC(=O)N[C@@H](Cc2ccc(O)cc2)C(=O)N[C@@H](CCCNC(=N)N)C(=O)N[C@@H](CC(N)=O)C(=O)N[C@@H](CCCNC(=N)N)C(=O)N[C@@H](CC(C)C)C(=O)N[C@@H](CCCCC)C(=O)N2CCC[C@H]2C(=O)N[C@@H](C(C)C)C(=O)N[C@@H](Cc2c[nH]c3ccccc23)C(=O)N[C@H](C(=O)NCC(=O)O)CSCC(=O)N[C@@H](Cc2ccccc2)C(=O)N[C@@H](Cc2ccc(O)cc2)C(=O)N[C@@H](CC(=O)O)C1=O [Example 1069] ({CH2CO}-FYD[NHexGly]YRNRL[Ahp(2)]PVWCG-OH; thioether N-14) | 48.3 nM |  |
| CCCCCCN1CC(=O)N[C@@H](Cc2ccc(O)cc2)C(=O)N[C@@H](CCCC)C(=O)NCC(=O)N[C@@H](CCCNC(=N)N)C(=O)N[C@@H](CC(C)C)C(=O)N[C@@H](CCCCC)C(=O)N2CCC[C@H]2C(=O)N[C@@H](C(C)C)C(=O)N[C@@H](Cc2ccc(O)cc2)C(=O)N[C@H](C(=O)NCC(=O)O)CSCC(=O)N[C@@H](Cc2ccccc2)C(=O)N[C@@H](Cc2ccc(O)cc2)C(=O)N[C@@H](CC(=O)O)C1=O [Example 1070] ({CH2CO}-FYD[NHexGly]Y[Nle]GRL[Ahp(2)]PVYCG-OH; thioether N-14) | 18.1 nM |  |
| CCCCCCN1CC(=O)N[C@@H](Cc2ccc(O)cc2)C(=O)N[C@@H](CCCC)C(=O)N[C@@H](CC(=O)O)C(=O)N[C@@H](CCCNC(=N)N)C(=O)N[C@@H](CC(C)C)C(=O)N[C@@H](CCCCC)C(=O)N2CCC[C@H]2C(=O)N[C@@H](C(C)C)C(=O)N[C@@H](Cc2ccc(O)cc2)C(=O)N[C@H](C(=O)NCC(=O)O)CSCC(=O)N[C@@H](Cc2ccccc2)C(=O)N[C@@H](Cc2ccc(O)cc2)C(=O)N[C@@H](CC(=O)O)C1=O [Example 1071] ({CH2CO}-FYD[NHexGly]Y[Nle]DRL[Ahp(2)]PVYCG-OH; thioether N-14) | 17.7 nM |  |

Other lines, results leading:

| IC50 (read-out: HC CBA mVISTA IC50) | IC50 (read-out: CBA mVISTA IC50) | Structure (SMILES) |
| --- | --- | --- |
| 38.7 nM |  | CCCCCCN1CC(=O)N[C@@H](Cc2ccc(O)cc2)C(=O)N[C@@H](CCCCN)C(=O)N[C@@H](CC(N)=O)C(=O)N[C@@H](CCCNC(=N)N)C(=O)N[C@@H](CC(C)C)C(=O)N[C@@H](CCCCC)C(=O)N2CCC[C@H]2C(=O)N[C@@H](C(C)C)C(=O)N[C@@H](CO)C(=O)N[C@H](C(=O)NCC(=O)O)CSCC(=O)N[C@@H](Cc2ccccc2)C(=O)N[C@@H](Cc2ccc(O)cc2)C(=O)N[C@@H](CC(=O)O)C1=O [Example 1058] ({CH2CO}-FYD[NHexGly]YKNRL[Ahp(2)]PVSCG-OH; thioether N-14) |
| 29.9 nM |  | CCCCCCN1CC(=O)N[C@@H](Cc2ccc(O)cc2)C(=O)N[C@@H](CCC)C(=O)NCC(=O)N[C@@H](CCCNC(=N)N)C(=O)N[C@@H](CC(C)C)C(=O)N[C@@H](CCCCC)C(=O)N2CCC[C@H]2C(=O)N[C@@H](C(C)C)C(=O)N[C@@H](CO)C(=O)N[C@H](C(=O)NCC(N)=O)CSCC(=O)N[C@@H](Cc2ccccc2)C(=O)N[C@@H](Cc2ccc(O)cc2)C(=O)N[C@@H](CC(=O)O)C1=O [Example 1060] ({CH2CO}-FYD[NHexGly]Y[Nva]GRL[Ahp(2)]PVSCG-NH2; thioether N-14) |
| 15.2 nM |  | CCCCCCN1CC(=O)N[C@@H](Cc2ccc(O)cc2)C(=O)N[C@@H](CC)C(=O)NCC(=O)N[C@@H](CCCNC(=N)N)C(=O)N[C@@H](CC(C)C)C(=O)N[C@@H](CCCCC)C(=O)N2CCC[C@H]2C(=O)N[C@@H](C(C)C)C(=O)N[C@@H](CO)C(=O)N[C@H](C(=O)NCC(=O)O)CSCC(=O)N[C@@H](Cc2ccccc2)C(=O)N[C@@H](Cc2ccc(O)cc2)C(=O)N[C@@H](CC(=O)O)C1=O [Example 1062] ({CH2CO}-FYD[NHexGly]Y[Abu]GRL[Ahp(2)]PVSCG-OH; thioether N-14) |
| 28.9 nM |  | CCCCCCN1CC(=O)N[C@@H](Cc2ccc(O)cc2)C(=O)N[C@@H](CCCC)C(=O)N[C@@H](CC(=O)O)C(=O)N[C@@H](CCCNC(=N)N)C(=O)N[C@@H](CC(C)C)C(=O)N[C@@H](CCCCC)C(=O)N2CCC[C@H]2C(=O)N[C@@H](C(C)C)C(=O)N[C@@H](Cc2c[nH]c3ccccc23)C(=O)N[C@H](C(=O)NCC(=O)O)CSCC(=O)N[C@@H](Cc2ccccc2)C(=O)N[C@@H](Cc2ccc(O)cc2)C(=O)N[C@@H](CC(=O)O)C1=O [Example 1067] ({CH2CO}-FYD[NHexGly]Y[Nle]DRL[Ahp(2)]PVWCG-OH; thioether N-14) |
| 5.8 nM |  | CCCCCCN1CC(=O)N[C@@H](Cc2ccc(O)cc2)C(=O)N[C@@H](CC(C)C)C(=O)N[C@@H](CC(N)=O)C(=O)N[C@@H](CCCNC(=N)N)C(=O)N[C@@H](CC(C)C)C(=O)N[C@@H](CCCCC)C(=O)N2CCC[C@H]2C(=O)N[C@@H](C(C)C)C(=O)N[C@@H](C(C)C)C(=O)N[C@H](C(=O)N[C@@H](CO)C(=O)O)CSCC(=O)N[C@@H](Cc2ccccc2)C(=O)N[C@@H](Cc2ccc(O)cc2)C(=O)N[C@@H](CC(=O)O)C1=O [Example 1072] ({CH2CO}-FYD[NHexGly]YLNRL[Ahp(2)]PVVCS-OH; thioether N-14) |
|  | 6.6 nM | CCCCCCN1CC(=O)N[C@@H](Cc2ccc(O)cc2)C(=O)N[C@@H](CCCC)C(=O)N[C@@H](CC(=O)O)C(=O)N[C@@H](CCCNC(=N)N)C(=O)N(C)[C@@H](CCCC)C(=O)N[C@@H](CCCCC)C(=O)N2CCC[C@H]2C(=O)N[C@@H](C(C)C)C(=O)N[C@@H](CC(=O)O)C(=O)N[C@H](C(=O)N[C@@H](CC(=O)O)C(N)=O)CSCC(=O)N[C@@H](Cc2ccccc2)C(=O)N[C@@H](Cc2ccc(O)cc2)C(=O)N[C@@H](CC(=O)O)C1=O [Example 1073] ({CH2CO}-FYD[NHexGly]Y[Nle]DR[NMeNle][Ahp(2)]PVDCD-NH2; thioether N-14) |
